Values after ≈ are worked out from the molar mass of the structure shown. Like-named read-outs stand apart in the source and are kept apart here.
Key:
S. schottmuelleri UC 126 = assay: standard microplate test in BHI Agar (MIC), S. schottmuelleri UC 126; assay type: cell-based; conditions: 20 h, read-out: Minimum Inhibitory Concentration
Experimental: (§1) Compounds were also tested in a standard microplate test in Brain Heart Infusion (BHI) Agar, at a concentration of 1 mg/ml. Incubation is at 37° and end points are read at 20 hours. Brain Heart Infusion Agar (supplied by Difco Laboratories, Detroit, Michigan, U.S.A.) has the following composition:
(§2) Compounds (7β), (7α) and (9) were tested again along with compounds (11) and (14β) against a neamine control using the same conditions as given above.

S. marcescens UC 131 = assay: standard microplate test in BHI Agar (MIC), S. marcescens UC 131; assay type: cell-based; conditions: Serratia marcescens, UC131, 20 h, S. marcescens UC 131, retest table, neamine control, read-out: Minimum Inhibitory Concentration
Experimental: as §1, §2

P. morgani UC 3186 = assay: standard microplate test in BHI Agar (MIC), P. morgani UC 3186; assay type: cell-based; conditions: 20 h, P. morgani UC 3186, retest table, neamine control, read-out: Minimum Inhibitory Concentration
Experimental: as §1, §2

S. hemolyticus UC 152 = assay: standard microplate test in BHI Agar (MIC), S. hemolyticus UC 152; assay type: cell-based, Streptococcus hemolyticus; conditions: for MIC: Streptococcus pyogenes
Experimental: as §1, §2

P. vulgaris UC 93 = assay: standard microplate test in BHI Agar (MIC), P. vulgaris UC 93; assay type: cell-based; conditions: Proteus vulgaris, UC93, 20 h, P. vulgaris UC 93, read-out: Minimum Inhibitory Concentration
Experimental: as §1, §2

S. aureus UC 570 = assay: standard microplate test in BHI Agar (MIC), S. aureus UC 570; assay type: cell-based; conditions: Staphylococcus aureus, first table, read-out: Minimum Inhibitory Concentration
Experimental: as §1, with “composition: […]” for “composition:”

P. rettgeri UC 339 = assay: standard microplate test in BHI Agar (MIC), P. rettgeri UC 339; assay type: cell-based; conditions: Providencia rettgeri, UC339, 20 h, P. rettgeri UC 339, retest table, neamine control, read-out: Minimum Inhibitory Concentration
Experimental: as §1, §2

K. pneumoniae UC 58 = assay: standard microplate test in BHI Agar (MIC), K. pneumoniae UC 58; assay type: cell-based; conditions: Klebsiella pneumoniae, UC58, 20 h
Experimental: as §1, §2

St. faecalis UC 694 = assay: standard microplate test in BHI Agar (MIC), St. faecalis UC 694; assay type: cell-based; conditions: Enterococcus faecalis, UC694, 20 h, read-out: Minimum Inhibitory Concentration
Experimental: as §1, §2

E. coli UC 45 = assay: standard microplate test in BHI Agar (MIC), E. coli UC 45; assay type: cell-based; conditions: Escherichia coli, UC45, 20 h, E. coli UC 45, read-out: Minimum Inhibitory Concentration
Experimental: as §1, §2

B. subtilis = assay: standard disc plate assay, 12.5 mm paper discs (zone of inhibition), B. subtilis; assay type: cell-based, Bacillus subtilis; conditions: for zone of inhibition at 5000 µg/mL / zone of inhibition at 10000 µg/mL: Bacillus subtilis, B. subtilis; for zone of inhibition at 5000 µg/mL: 5 mg/ml; for zone of inhibition at 10000 µg/mL: 10 mg/ml; for active against Bacillus subtilis: conclusion in words from the above results
Excerpt: (§3) The novel intermediates, disclosed herein, are useful to make novel aminoglycoside antibiotics. These novel aminoglycoside antibiotics are antibacterially active, and, thus, they can be used in various environments to eradicate or control sensitive bacteria. Following are in vitro antibacterial test results for representative compounds of the subject invention. The results were obtained with a standard disc plate assay using 12.5 mm paper discs.

B. cereus = assay: standard disc plate assay, 12.5 mm paper discs (zone of inhibition), B. cereus; assay type: cell-based, Bacillus cereus; conditions: for zone of inhibition at 5000 µg/mL / zone of inhibition at 10000 µg/mL: Bacillus cereus, B. cereus; for zone of inhibition at 5000 µg/mL: 5 mg/ml; for zone of inhibition at 10000 µg/mL: 10 mg/ml; for active against Bacillus cereus: conclusion in words from the above results
Excerpt: as §3

D. pneumoniae UC 41 = assay: standard microplate test in BHI Agar (MIC), D. pneumoniae UC 41; assay type: cell-based; conditions: Streptococcus pneumoniae, UC41, 20 h, D. pneumoniae UC 41, read-out: Minimum Inhibitory Concentration
Experimental: as §1, §2

Ps. aeruginosa UC 95 = assay: standard microplate test in BHI Agar (MIC), Ps. aeruginosa UC 95; assay type: cell-based; conditions: Pseudomonas aeruginosa, UC95, 20 h, Ps. aeruginosa UC 95, read-out: Minimum Inhibitory Concentration
Experimental: as §1, §2

P. mirabilis A-63 = assay: standard microplate test in BHI Agar (MIC), P. mirabilis A-63; assay type: cell-based; conditions: Proteus mirabilis, A63, 20 h, P. mirabilis A-63, retest table, neamine control, read-out: Minimum Inhibitory Concentration
Experimental: as §1, §2

S. aureus UC 76 = assay: standard microplate test in BHI Agar (MIC), S. aureus UC 76; assay type: cell-based, Staphylococcus aureus; conditions: for MIC: Staphylococcus aureus, UC76, 20 h, read-out: Minimum Inhibitory Concentration
Experimental: as §1, §2

S. flexneri UC 143 = assay: standard microplate test in BHI Agar (MIC), S. flexneri UC 143; assay type: cell-based; conditions: Shigella flexneri, UC143, 20 h, retest table, neamine control, read-out: Minimum Inhibitory Concentration
Experimental: as §1, §2

S. aureus UC 746 = assay: standard microplate test in BHI Agar (MIC), S. aureus UC 746; assay type: cell-based; conditions: Staphylococcus aureus, UC746, 37°, 20 h, first table, read-out: Minimum Inhibitory Concentration
Experimental: as §1, with “composition: […]” for “composition:”

S. typhi TG-3 = assay: standard microplate test in BHI Agar (MIC), S. typhi TG-3; assay type: cell-based; conditions: Salmonella enterica, 20 h, read-out: Minimum Inhibitory Concentration
Experimental: as §1, §2

[1] = retest table, group (7β), (14β), neamine control
[2] = BHI agar, 37°, 20 h, first table, *run on different day
[3] = retest table, group (9), (11), (7α), neamine control
[4] = BHI agar, 37°, 20 h, first table

With `NC[C@H]1O[C@H](O[C@H]2[C@H](O)[C@@H](O[C@@H]3O[C@H](CO)[C@@H](O)[C@H]3O)[C@H](N)C[C@@H]2N)[C@H](N)[C@@H](O)[C@@H]1O` [(7β), 6-O-(β-D-Ribofuranosyl)neamine] the MIC (S. schottmuelleri UC 126; BHI agar, 37°, first table, *run on different day) was 250 µg/mL (≈ 550 µM), the MIC (S. schottmuelleri UC 126; [1]) was 500 µg/mL (≈ 1100 µM) and the MIC (S. marcescens UC 131; group (7β), (14β)) was 1000 µg/mL (≈ 2200 µM). It also gave an MIC (P. morgani UC 3186; group (7β), (14β)) of 1000 µg/mL (≈ 2200 µM), an MIC (S. hemolyticus UC 152; UC152, 20 h, read-out: Minimum Inhibitory Concentration, S. hemolyticus UC 152, BHI agar, 37°, 20 h, first table, *run on different day) of 62.5 µg/mL (≈ 138 µM) and an MIC (S. hemolyticus UC 152; UC152, 20 h, S. hemolyticus UC 152, retest table, group (7β), (14β), neamine control, read-out: Minimum Inhibitory Concentration) of 250 µg/mL (≈ 550 µM). For the same compound, the MIC (P. vulgaris UC 93; [2]) was 500 µg/mL (≈ 1100 µM), the MIC (P. vulgaris UC 93; [1]) was 1000 µg/mL (≈ 2200 µM) and the MIC (S. aureus UC 570; UC570, 37°, 20 h, *run on different day) was 1000 µg/mL (≈ 2200 µM). For the same compound, the MIC (P. rettgeri UC 339; group (7β), (14β)) was 1000 µg/mL (≈ 2200 µM), the MIC (K. pneumoniae UC 58; read-out: Minimum Inhibitory Concentration, K. pneumoniae UC 58, BHI agar, 37°, 20 h, first table, *run on different day) was 62.5 µg/mL (≈ 138 µM) and the MIC (K. pneumoniae UC 58; K. pneumoniae UC 58, retest table, group (7β), (14β), neamine control, read-out: Minimum Inhibitory Concentration) was 250 µg/mL (≈ 550 µM). For the same compound, the MIC (St. faecalis UC 694; S. faecalis UC 694, retest table, group (7β), (14β), neamine control) was 1000 µg/mL (≈ 2200 µM), the MIC (St. faecalis UC 694; St. faecalis UC 694, BHI agar, 37°, 20 h, first table, *run on different day) was over 1000 µg/mL and the MIC (E. coli UC 45; [2]) was 500 µg/mL (≈ 1100 µM). It also gave an MIC (E. coli UC 45; [1]) of 1000 µg/mL (≈ 2200 µM), a zone of inhibition at 5000 µg/mL (B. subtilis) of 35 mm and a zone of inhibition at 10000 µg/mL (B. subtilis) of 38 mm. For the same compound, the “active against Bacillus subtilis” value (B. subtilis) was “active”, the zone of inhibition at 5000 µg/mL (B. cereus) was 25 mm and the zone of inhibition at 10000 µg/mL (B. cereus) was 34 mm. The “active against Bacillus cereus” value (B. cereus) was “active”, the MIC (D. pneumoniae UC 41; [2]) was over 1000 µg/mL and the MIC (D. pneumoniae UC 41; [1]) was 1000 µg/mL (≈ 2200 µM). The MIC (Ps. aeruginosa UC 95; [2]) was over 1000 µg/mL, the MIC (Ps. aeruginosa UC 95; [1]) was 1000 µg/mL (≈ 2200 µM) and the MIC (P. mirabilis A-63; group (7β), (14β)) was 1000 µg/mL (≈ 2200 µM). The MIC (S. aureus UC 76; S. aureus 284 UC 76, BHI agar, 37°, 20 h, first table, *run on different day) was 1000 µg/mL (≈ 2200 µM), the MIC (S. aureus UC 76; S. aureus UC 76, retest table, group (7β), (14β), neamine control) was 500 µg/mL (≈ 1100 µM) and the MIC (S. flexneri UC 143; group (7β), (14β)) was 1000 µg/mL (≈ 2200 µM). For the same compound, the MIC (S. aureus UC 746; *run on different day) was 500 µg/mL (≈ 1100 µM) and the MIC (S. typhi TG-3) was 1000 µg/mL (≈ 2200 µM).

With `CC1(O[C@@H]2[C@@H](O)[C@H](O[C@H]3O[C@H](CN)[C@@H](O)[C@H](O)[C@H]3N)[C@@H](N)C[C@H]2N)O[C@H]2O[C@H](CO)[C@@H](O)[C@H]2O1` (stereo partly shown) [Compound (9)] the MIC (S. schottmuelleri UC 126; BHI agar, 37°, first table) was 250 µg/mL (≈ 504 µM), the MIC (S. schottmuelleri UC 126; [3]) was 62.5 µg/mL (≈ 126 µM) and the MIC (S. marcescens UC 131; group (9), (11), (7α)) was 500 µg/mL (≈ 1010 µM). For the same compound, the MIC (P. morgani UC 3186; group (9), (11), (7α)) was 125 µg/mL (≈ 252 µM), the “Minimum Inhibitory Concentration” value (S. hemolyticus UC 152; S. hemolyticus UC 152, retest table, group (9), (11), (7α), neamine control) was 3.9 µg/mL and the MIC (S. hemolyticus UC 152; UC152, S. hemolyticus UC 152, BHI agar, 37°, 20 h, first table, read-out: Minimum Inhibitory Concentration) was 3.9 µg/mL (≈ 7.85 µM). For the same compound, the MIC (P. vulgaris UC 93; [4]) was 500 µg/mL (≈ 1010 µM), the MIC (P. vulgaris UC 93; [3]) was 125 µg/mL (≈ 252 µM) and the MIC (S. aureus UC 570; UC570, 20 h, 37°) was 250 µg/mL (≈ 504 µM). For the same compound, the MIC (P. rettgeri UC 339; group (9), (11), (7α)) was 1000 µg/mL (≈ 2010 µM), the MIC (K. pneumoniae UC 58; read-out: Minimum Inhibitory Concentration, K. pneumoniae UC 58, BHI agar, 37°, 20 h, first table) was 62.5 µg/mL (≈ 126 µM) and the MIC (K. pneumoniae UC 58; K. pneumoniae UC 58, retest table, group (9), (11), (7α), neamine control, read-out: Minimum Inhibitory Concentration) was 31.2 µg/mL (≈ 62.8 µM). For the same compound, the MIC (St. faecalis UC 694; S. faecalis UC 694, retest table, group (9), (11), (7α), neamine control) was 1000 µg/mL (≈ 2010 µM), the MIC (St. faecalis UC 694; St. faecalis UC 694, BHI agar, 37°, 20 h, first table) was over 1000 µg/mL and the MIC (E. coli UC 45; [4]) was 250 µg/mL (≈ 504 µM). The MIC (E. coli UC 45; [3]) was 250 µg/mL (≈ 504 µM), the zone of inhibition at 5000 µg/mL (B. subtilis) was 32 mm and the zone of inhibition at 10000 µg/mL (B. subtilis) was 34 mm. For the same compound, the “active against Bacillus subtilis” value (B. subtilis) was “active”, the zone of inhibition at 5000 µg/mL (B. cereus) was 29 mm and the zone of inhibition at 10000 µg/mL (B. cereus) was 34 mm. The “active against Bacillus cereus” value (B. cereus) was “active”, the MIC (D. pneumoniae UC 41; [4]) was over 1000 µg/mL and the MIC (D. pneumoniae UC 41; [3]) was 125 µg/mL (≈ 252 µM). The MIC (Ps. aeruginosa UC 95; [4]) was over 1000 µg/mL, the MIC (Ps. aeruginosa UC 95; [3]) was 1000 µg/mL (≈ 2010 µM) and the MIC (P. mirabilis A-63; group (9), (11), (7α)) was 500 µg/mL (≈ 1010 µM). For the same compound, the MIC (S. aureus UC 76; S. aureus UC 76, retest table, group (9), (11), (7α), neamine control) was 125 µg/mL (≈ 252 µM), the “active against Staphylococcus aureus” value (S. aureus UC 76; conclusion in words from the above results) was “active” and the MIC (S. flexneri UC 143; group (9), (11), (7α)) was 500 µg/mL (≈ 1010 µM). It also gave an MIC (S. aureus UC 746) of 250 µg/mL (≈ 504 µM) and an MIC (S. typhi TG-3) of 250 µg/mL (≈ 504 µM).

Source: patent US3984393A, “Aminoglycoside antibiotics” (The Upjohn Company, priority 1975, dated 1976)
